Holding throughout (format): ADME, cell-based
For data set [1], the system named is HeLa. The data set can be described thus: Cellular uptake in human HeLa cells at 1 uM after 2 hrs by confocal laser scanning microscopy.
In data set [2] the test system is HeLa. The data set can be described thus: Cellular uptake in human HeLa cells assessed as nuclear localization at 1 uM after 2 hrs by confocal laser scanning microscopy.
Data set [3] concerns HeLa. The data set can be described thus: Cellular uptake in human HeLa cells at 1 to 5 uM treated for 1 hr followed by washout measured after 1 hr by flow cytometry. For orientation: In flow cytometry, cells or beads pass a laser one at a time.

Drug uptake data for two compounds are collected here from ChEMBL document CHEMBL1817633, “Evaluation of a cell penetrating prenylated peptide lacking an intrinsic fluorophore via in situ click reaction” (Bioorg Med Chem Lett, 2011).

Peptide text beside a SMILES is read from it. * marks the point of attachment. Geranylgeranyl = CC(C)=CCC/C(C)=C/CC/C(C)=C/CC/C(C)=C/C*; X1 = O=C(O)c1cc(C(=O)*)ccc1-c1c2ccc(=O)cc-2oc2cc(O)ccc12; Pent4ynoyl = C#CCCC(=O)*

In the case of `C#CCCC(=O)N[C@@H](CCCCNC(C)=O)C(=O)N[C@@H](C)C(=O)N[C@@H](CCCCN)C(=O)N[C@@H](CCCCN)C(=O)N[C@@H](CO)C(=O)N[C@@H](CCCNC(=N)N)C(=O)N[C@@H](CCCNC(=N)N)C(=O)N[C@@H](CSC/C=C(\C)CC/C=C(\C)CC/C=C(\C)CCC=C(C)C)C(N)=O` (Pent4ynoyl-K(Ac)AKKSRRC(Geranylgeranyl)-NH2), the Drug uptake entry in the data set on HeLa [1] and in the data set with HeLa [2] was “Active” throughout.

In the case of `C#CCCC(=O)N[C@@H](CCCCNC(=O)c1ccc(-c2c3ccc(=O)cc-3oc3cc(O)ccc23)c(C(=O)O)c1)C(=O)N[C@@H](C)C(=O)N[C@@H](CCCCN)C(=O)N[C@@H](CCCCN)C(=O)N[C@@H](CO)C(=O)N[C@@H](CCCNC(=N)N)C(=O)N[C@@H](CCCNC(=N)N)C(=O)N[C@@H](CSC/C=C(\C)CC/C=C(\C)CC/C=C(\C)CCC=C(C)C)C(N)=O` (Pent4ynoyl-K(X1)AKKSRRC(Geranylgeranyl)-NH2), the results for the Drug uptake result in the data set with HeLa [1], in the data set with HeLa [3] and with HeLa [2] were “Active”, “Active” and “Not Active”, respectively.
